According to publication PMC8216263 (Pharmaceutical Biology, 2021):

Assays:
[1] = Single- and multiple-dose plasma pharmacokinetics of GA and PCA after oral RLQ in healthy subjects; format: in vivo, human; details: LC-MS/MS after oral RLQ
Experimental: The study protocol was approved by the Ethics Committee of the Second Affiliated Hospital of Tianjin University of Traditional Chinese Medicine. […] Subjects were offered standard meals at 4 and 10 h after dosing. Water was not permitted during the hour before and the hour after dosing, except for 240 mL administered with dosing; additional water intake was allowed at all other times.
In the single-dose study, 8 g of RLQ was administered orally on day 1. A 7-d washout time was designed between single-dose and multiple-dose pharmacokinetic studies. In the multiple-dose study, subjects received multiple doses of RLQ (8 g, t.i.d.) for seven consecutive days from day 8 to day 14 and a single dose of RLQ (8 g) on the morning of day 15. […] Additional pre-dose samples were collected in the morning on days 12, 13 and 14. […] All samples were stored at −80 °C until analysis.
All analytes were extracted from plasma and urine samples by simple protein precipitation extraction method using acetonitrile. Briefly, 5 µL of internal standard solution and 300 μL of acetonitrile were added to the spiked blank matrix (100 μL) and vortexed for 3 min and then centrifuged at 13,000 × g for 10 min. The supernatant was transferred and dried using a flow of nitrogen. The residue was re-dissolved in 100 µL of 10% methanol solution containing 0.1% formic acid. An aliquot of 5 µL solution was injected into the LC-MS/MS system for analysis.
The chromatographic separation was performed on an Acquity Ultra Performance LC instrument (Waters, Milford, MA) with a gradient programme in an ACQUITY UPLC BEH C18 column (2.1 mm × 100 mm, 1.7 μm). […] The injection volume was 2 µL. The mass spectrometry analysis was performed on an AB Sciex Triple Quad 5500 MS (Framingham, MA) equipped with an ESI source.
The peak plasma concentration (Cmax) and time to reach the peak plasma concentration (Tmax) were calculated from the actual plasma concentration data. The area under the plasma concentration-time curve from zero to the last measurable concentration (AUC0–t) was calculated via the linear trapezoidal rule. AUC0–∞ was calculated using the following formula: AUC0–∞ = AUC0–t + Ct/ke, where Ct is the last plasma concentration measured. […] The accumulation index was calculated as AUCss/AUC0–t.

BCRP = target: T1, BCRP (Homo sapiens, UniProt Q9UNQ0); set-up: method as in Ebert et al. 2006; details: Caco-2 cells pre-treated with quercetin, ref Ebert et al. 2006; cited from earlier work
T1 sequence (Q9UNQ0 1-655): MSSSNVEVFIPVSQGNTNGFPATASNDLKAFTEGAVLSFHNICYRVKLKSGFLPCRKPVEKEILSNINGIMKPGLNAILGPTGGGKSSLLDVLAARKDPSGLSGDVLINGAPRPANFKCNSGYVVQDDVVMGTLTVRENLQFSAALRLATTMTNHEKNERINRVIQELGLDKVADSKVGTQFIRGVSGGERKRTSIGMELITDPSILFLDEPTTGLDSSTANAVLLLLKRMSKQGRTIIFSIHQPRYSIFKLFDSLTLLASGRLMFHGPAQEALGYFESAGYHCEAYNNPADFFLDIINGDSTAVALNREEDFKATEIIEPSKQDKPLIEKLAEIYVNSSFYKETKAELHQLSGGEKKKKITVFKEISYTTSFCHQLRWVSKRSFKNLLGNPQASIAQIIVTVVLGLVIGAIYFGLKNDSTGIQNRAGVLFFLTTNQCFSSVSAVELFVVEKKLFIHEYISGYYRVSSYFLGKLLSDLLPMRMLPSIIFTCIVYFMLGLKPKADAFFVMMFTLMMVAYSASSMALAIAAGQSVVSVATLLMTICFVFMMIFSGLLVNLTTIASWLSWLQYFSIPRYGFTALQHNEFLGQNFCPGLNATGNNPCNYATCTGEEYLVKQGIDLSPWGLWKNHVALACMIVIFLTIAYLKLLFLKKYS

Row | Compound | response in human plasma and urine samples [1] | apical transport of BCRP-mediated benzo(a)pyrene-3-sulphate (BCRP)
1 | O=c1c(O)c(-c2ccc(O)cc2)oc2cc(O)cc(O)c12 [kaempferol] | little or no response | 
2 | O=c1c(O)c(-c2ccc(O)c(O)c2)oc2cc(O)cc(O)c12 [quercetin] | little or no response | increase
